This series can be described thus: Absorption and emission spectra of MB-102 (FIG. 3). In kind it is physicochemical. An excerpt: By way of illustrative example, FIG. 3 is a graph summarizing the absorption spectra for HbO2 and Hb, as well as the absorption and emission spectra of frequency spectra of MB-102, an exogenous fluorescent agent in one aspect. Emission spectra for a blue LED light source and a green LED light source are also shown superimposed over the other spectra of FIG. 3. In this aspect, the system 200 may include a blue LED as the first light source 218, and the excitatory wavelength for the system 200 may be the isosbestic wavelength of about 450 nm. […] However, at wavelengths above about 500 nm, the HbO2/Hb spectra are less steeply sloped, and a broader band light source including, but not limited to, an LED with a bandpass filter may suffice for use as a first light source 218.
In another aspect, the excitatory wave length may be selected to enhance the contrast in light absorbance between the exogenous fluorescent agent and the chromophores within the tissues of the patient 202. […] Without being limited to any particular theory, a higher proportion of light illuminating the tissue of the patient 202 at a wavelength of about 450 nm will be absorbed by the MB-102 relative to the HbO2 and Hb, thus enhancing the efficiency of absorption by the MB-102 and reducing the intensity of light at the excitatory wavelength needed to elicit a detectable fluorescence signal. […]

Each structure is given as a SMILES string.

As for `Nc1nc(C(=O)N[C@H](CO)C(=O)O)c(N)nc1C(=O)N[C@H](CO)C(=O)O` [MB-102], for the setting “at the isosbestic wavelength of 452 nm”, the “light absorption relative to the light absorption of the HbO2 and the Hb” value is given as “more than three-fold higher”. In addition, under “emission spectrum”, the emission peak wavelength result is listed as “about 550 nm”.

The values are drawn from patent US10194854B2, “Method for non-invasive monitoring of fluorescent tracer agent with background separation corrections” (MediBeacon Inc., priority 2017, dated 2019).
